Laboratory results: patent US9108983B2, “Pyrrole compounds, a process for their preparation and pharmaceutical compositions containing them” (LES LABORATOIRES SERVIER, priority 2013, dated 2015)
Where a name gives a salt, the structure may show the parent alone. Read-outs that look alike come from different tables or passages of the source.

Tests used:
Bcl-2 protein = Bcl-2 protein (histag-Bcl-2, UniProtKB P10415) (Homo sapiens (Human), UniProt P10415); assay: Inhibition of Bcl-2 by the fluorescence polarisation technique; assay type: binding; conditions: incubation for 2 hours, read-out: IC50 (nM) Bcl-2 FP
Summary of the method: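 Fluorescence polarisation competition: His-tagged Bcl-2 (2.50×10^−8 M final) with fluorescein-labelled peptide (1.00×10^−8 M final) in 10 mM Hepes, 150 mM NaCl, 0.05% Tween20, pH 7.4. Increasing compound concentrations were added. Polarisation was read after 2 h incubation.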

[1] = tested on: RS4;11 leukaemia tumour line; assay: In vitro cytotoxicity (Microculture Tetrazolium Assay); assay type: cell-based; conditions: RS4;11 cells, exposed for 48 hours, cell viability, read-out: IC50 (nM) MTT RS4;11
Experimental: The cytotoxicity studies were carried out on the RS4;11 leukaemia tumour line.
The cells are distributed onto microplates and exposed to the test compounds for 48 hours.
The cell viability is then quantified by a colorimetric assay, the Microculture Tetrazolium Assay (Cancer Res., 1987, 47, 939-942).

Bcl-2 protein, sequence (P10415 whole entry): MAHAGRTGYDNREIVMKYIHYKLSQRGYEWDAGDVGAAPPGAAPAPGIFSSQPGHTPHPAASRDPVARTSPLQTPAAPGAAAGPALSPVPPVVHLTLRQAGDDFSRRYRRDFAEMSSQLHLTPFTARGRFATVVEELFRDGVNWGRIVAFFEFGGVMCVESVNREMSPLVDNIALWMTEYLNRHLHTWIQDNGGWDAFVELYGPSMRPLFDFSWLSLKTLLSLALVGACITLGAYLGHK

Compound | IC50 (Bcl-2 protein) [nM] | IC50 ([1]; Homo sapiens, RS4-11, 48 h) [nM] | IC50 [1] [nM]
Cc1c(C(=O)N(c2ccc(O)cc2)c2cnc3c(ccn3C)c2)cc(-c2cc(F)ccc2C(=O)N2Cc3ccccc3C[C@H]2CN2CCOCC2)n1C [Example 385, 5-(5-Fluoro-2-{[(3S)-3-(morpholin-4-ylmethyl)-3,4-dihydroisoquinolin-2(1H)-yl]carbonyl}phenyl)-N-(4-hydroxyphenyl)-1,2-dimethyl-N-(1-methyl-1H-pyrrolo[2,3-b]pyridin-5-yl)-1H-pyrrole-3-carboxamide hydrochloride] | 5.7 | 28.7 | 
Cc1c(C(=O)N(C)c2ccc(O)cc2)cc(-c2cc(CCNC(=O)COc3ccccc3)ccc2C(=O)N2Cc3ccccc3C[C@H]2C)n1C [Example 46, N-(4-Hydroxyphenyl)-N,1,2-trimethyl-5-(2-{[(3R)-3-methyl-3,4-dihydroisoquinolin-2(1H)-yl]carbonyl}-5-{2-[(phenoxyacetyl)amino]ethyl}phenyl)-1H-pyrrole-3-carboxamide] | 76.6 | > 600 | 
Cc1c(C(=O)N(c2ccncc2)c2ccc(O)cc2)cc(-c2cc3c(cc2C(=O)N2Cc4ccccc4C[C@H]2CN2CCN(C)CC2)OCO3)n1C [Example 70, N-(4-Hydroxyphenyl)-1,2-dimethy-5-(6-{[(3S)-3-[(4-methylpiperazin-1-yl)methyl]-3,4-dihydroisoquinolin-2(1H)-yl]carbonyl}4,3-benodioxol-5-yl)-N-(pyridin-4-yl)-1H-pyrrole-3-carboxamide hydrochloride] | 8.5 |  | 63.5
CC1=C(C(=O)N(c2ccccc2)c2ccc(O)cc2)CC(c2cc(Cl)ccc2C(=O)N2Cc3ccccc3C[C@H]2COCCN2CCOCC2)N1C (stereo partly drawn) [Example 29, 5-(5-Chloro-2-{[(3S)-3-{[2-(morpholin-4-yl)ethoxy]methyl}-3,4-dihydroisoquinolin-2(1H)-yl]carbonyl}phenyl)-N-(4-hydroxyphenyl)-1,2-dimethyl-N-phenyl-4H-pyrrole-3-carboxamide hydrochloride] | 6.6 | 47.5 | 
COCCN(C)CCn1c(-c2cc3c(cc2C(=O)N2Cc4ccccc4C[C@H]2C)OCO3)cc(C(=O)N(c2ccc(O)cc2)c2cnn(C)c2)c1C [Example 99, N-(4-Hydroxyphenyl)-1-{2-[(2-methoxyethyl)(methyl)amino]ethyl}-2-methyl-5-(6-{[(3R)-3-methyl-3,4-dihydroisoquinolin-2(1H)-yl]carbonyl}-1,3-benzodioxol-5-yl)-N-(1-methyl-1H-pyrazol-4-yl)-1H-pyrrole-3-carboxamide hydrochloride] | 6.4 | 108 | 
Cc1c(C(=O)N(c2ccccc2)c2ccc(O)cc2)cc(-c2cc3c(cc2C(=O)N2Cc4ccccc4C[C@H]2CCN2CCOCC2)OCO3)n1CCO [Example 18, 1-(2-Hydroxyethyl)-N-(4-hydroxyphenyl)-2-methyl-5-(6-{[(3S)-3-[2-(morpholin-4-yl)ethyl]-3,4-dihydroisoquinolin-2(1H)-yl]carbonyl}-1,3-benzodioxol-5-yl)-N-phenyl-1H-pyrrole-3-carboxamide hydrochloride] | 3.9 | 27.6 | 
Cc1c(C(=O)N(c2ccc(O)cc2)c2cnn(C)c2)cc(-c2cc3c(cc2C(=O)N2Cc4ccccc4C[C@H]2CN2CCOCC2)OCO3)n1CC(F)F [Example 95, 1-(2,2-Difluoroethyl)-N-(4-hydroxyphenyl)-2-methyl-N-(1-methyl-1H-pyrazol-4-yl)-5-(6-{[(3S)-3-(morpholin-4-ylmethyl)-3,4-dihydroisoquinolin-2(1H)-yl]carbonyl}-1,3-benzodioxol-5-yl)-1H-pyrrole-3-carboxamide hydrochloride] | 7 | 174 | 
Cc1c(C(=O)N(c2ccc(O)cc2)c2cnc(OCCN3CCOCC3)nc2)cc(-c2cc(Cl)ccc2C(=O)N2Cc3ccccc3C[C@H]2C)n1C [Example 456, 5-(5-Chloro-2-{[(3R)-3-methyl-3,4-dihydroisoquinolin-2(1H)-yl]-carbonyl}phenyl)-N-(4-hydroxyphenyl)-1,2-dimethyl-N-{2-[2-(morpholin-4-yl)-ethoxy]pyrimidin-5-yl}-1H-pyrrole-3-carboxamide hydrochloride] | 2.7 | 80.6 | 
Cc1c(C(=O)N(c2ccc(O)cc2)c2cnn(C)c2)cc(-c2cc3c(cc2C(=O)N2Cc4ccccc4C[C@H]2CN2CCOCC2)OCO3)n1CCF [Example 94, 1-(2-Fluoroethyl)-N-(4-hydroxyphenyl)-2-methyl-N-(1-methyl-1H-pyrazol-4-yl)-5-(6-{[(3S)-3-(morpholin-4-ylmethyl)-3,4-dihydroisoquinolin-2(1H)-yl]carbonyl}-1,3-benzodioxol-5-yl)-1H-pyrrole-3-carboxamide hydrochloride] | 8.6 | 104 | 
Cc1nn(C)cc1N(C(=O)c1cc(-c2cc(Cl)ccc2C(=O)N2Cc3ccccc3C[C@H]2CN2CCOCC2)n(C)c1C)c1ccc(O)cc1 [Example 431, 5-(5-Chloro-2-{[(3S)-3-(morpholin-4-ylmethyl)-3,4-dihydroisoquinolin-2(1H)-yl]carbonyl}phenyl)-N-(1,3-dimethyl-1H-pyrazol-4-yl)-N-(4-hydroxyphenyl)-1,2-dimethyl-1H-pyrrole-3-carboxamide hydrochloride] | 3 | 89 | 
CN1CCN(C[C@@H]2Cc3ccccc3CN2C(=O)c2ccc(Cl)cc2-c2cc(C(=O)N(c3ccc(O)cc3)c3ccc4[nH]ccc4c3)cn2C)CC1 [Example 3, 5-(5-Chloro-2-{[(3S)-3-[(4-methylpiperazin-1-yl)methyl]-3,4-dihydroisoquinolin-2(1H)-yl]carbonyl}phenyl)-N-(4-hydroxyphenyl)-N-(1H-indol-5-yl)-1-methyl-1H-pyrrole-3-carboxamide] | 24.6 | 94.9 | 
Cc1c(N(C(=O)c2cc(-c3ccccc3C(=O)N3Cc4ccccc4C[C@H]3CN3CCOCC3)n(C)c2C)c2ccc(O)cc2)cc(C#N)n1C [Example 406, N-(5-Cyano-1,2-dimethyl-1H-pyrrol-3-yl)-N-(4-hydroxyphenyl)-1,2-dimethyl-5-(2-{[(3S)-3-(morpholin-4-ylmethyl)-3,4-dihydroisoquinolin-2(1H)-yl]carbonyl}phenyl)-1H-pyrrole-3-carboxamide hydrochloride] | 4.2 | 10.6 | 
COc1ccc(C(=O)N2Cc3ccccc3C[C@H]2C)c(-c2cc(C(=O)N(c3ccc(O)cc3)c3cnn(C)c3)c(C)n2C)c1 [Example 31, N-(4-Hydroxyphenyl)-5-(5-methoxy-2-{[(3R)-3-methyl-3,4-dihydroisoquinolin-2(1H)-yl]carbonyl}phenyl)-1,2-dimethyl-N-(1-methyl-1H-pyrazol-4-yl)-1H-pyrrole-3-carboxamide] | 7.2 | 89.3 | 
Cc1c(N(C(=O)c2cc(-c3cc4c(cc3C(=O)N3Cc5ccccc5C[C@H]3CN3CCOCC3)OCCO4)n(C)c2C)c2ccc(O)cc2)cc(C#N)n1C [Example 413, N-(5-Cyano-1,2-dimethyl-1H-pyrrol-3-yl)-N-(4-hydroxyphenyl)-1,2-dimethyl-5-(7-{[(3S)-3-(morpholin-4-ylmethyl)-3,4-dihydroisoquinolin-2(1H)-yl]-carbonyl}-2,3-dihydro-1,4-benzodioxin-6-yl)-1H-pyrrole-3-carboxamide hydrochloride] | 3.1 | 9.43 | 
Cc1c(C(=O)N(c2ccc(O)cc2)c2ccc(F)cc2)cc(-c2cc(Cl)ccc2C(=O)N2Cc3ccccc3C[C@H]2CN2CCOCC2)n1C [Example 33, 5-(5-Chloro-2-{[(3S)-3-(morpholin-4-ylmethyl)-3,4-dihydroisoquinolin-2(1H)-yl]carbonyl}phenyl)-N-(4-fluorophenyl)-N-(4-hydroxyphenyl)-1,2-dimethyl-1H-pyrrole-3-carboxamide hydrochloride] | 10.9 | 57.8 | 
COc1ncc(N(C(=O)c2cc(-c3cc4c(cc3C(=O)N3Cc5ccccc5C[C@H]3C)OCO4)n(C)c2C)c2ccc(O)cc2)cn1 [Example 48, N-(4-Hydroxyphenyl)-N-(2-methoxypyrimidin-5-yl)-1,2-dimethyl-5-(6-{[(3R)-3-methyl-3,4-dihydroisoquinolin-2(1H)-yl]carbonyl}-1,3-benzodioxol-5-yl)-1H-pyrrole-3-carboxamide] | 4.4 | 14.9 | 
COc1cc(C(=O)N2Cc3ccccc3C[C@H]2CN2CCOCC2)c(-c2[nH]c(C)c(C(=O)N(c3ccc(O)cc3)c3cnn(C)c3)c2C)cc1F [Example 100, 5-(5-Fluoro-4-methoxy-2-{[(3S)-3-(morpholin-4-ylmethyl)-3,4-dihydroisoquinolin-2(1H)-yl]carbonyl}phenyl)-N-(4-hydroxyphenyl)-4,2-dimethyl-N-(1-methyl-1H-pyrazol-4-yl)-1H-pyrrole-3-carboxamide hydrochloride] | 22.9 | 193 | 
CCn1c(-c2cc3c(cc2C(=O)N2Cc4ccccc4C[C@H]2CN2CCOCC2)OCO3)cc(C(=O)N(c2ccc(O)cc2)c2cnn(C)c2)c1C [Example 92, 1-Ethyl-N-(4-hydroxyphenyl)-2-methyl-N-(1-methyl-1H-pyrazol-4-yl)-5-(6-{[(3S)-3-(morpholin-4-ylmethyl)-3,4-dihydroisoquinolin-2(1H)-yl]carbonyl}-1,3-benzodioxol-5-yl)-1H-pyrrole-3-carboxamide hydrochloride] | 8.4 | 37.8 | 
Cc1c(C(=O)N(c2ccc(O)cc2)c2cnn(C)c2)cc(-c2cc3c(cc2C(=O)N2Cc4ccccc4C[C@H]2C)OCO3)n1C [Example 39, N-(4-Hydroxyphenyl)-1,2-dimethyl-5-(6-{[(3R)-3-methyl-3,4-dihydroisoquinolin-2(1H)-yl]carbonyl}-1,3-benzodioxol-5-yl)-N-(1-methyl-1H-pyrazol-4-yl)-1H-pyrrole-3-carboxamide] | 7.2 | 19.7 | 
